Measurements: US9896435B2, “N-pyrrolidinyl,N′-pyrazolyl-urea, thiourea, guanidine and cyanoguanidine compounds as TrkA kinase inhibitors” (Array BioPharma Inc., priority 2012, dated 2018)

How the values were obtained:
Experiment in all cases: KinaseProfiler off-target kinase profiling
Format in all cases: biochemical
Details in all cases: 10 μM, ATP near Km
MRCKalpha = MRCKalpha (Homo sapiens (Human), UniProt Q5VT25)
Method in brief: (§1)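 Readout is percent of control (POC), averaged from two replicates. Each kinase was tested with compound at 10 μM and ATP near its Km.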

IRAK4 = IRAK4 (Homo sapiens (Human), UniProt Q9NWZ3)
Method in brief: as §1

PKCbetaI = PKCbetaI (Homo sapiens (Human), UniProt P05771)
Method in brief: as §1

RIPK2 = RIPK2 (Homo sapiens (Human), UniProt O43353)
Method in brief: as §1

SGK1 = SGK1 (Homo sapiens (Human), UniProt O00141)
Method in brief: as §1

CAMK2b = CAMK2b (Homo sapiens (Human), UniProt Q13554)
Method in brief: as §1

DYRK2 = DYRK2 (Homo sapiens (Human), UniProt Q92630)
Sequence of DYRK2 (Q92630 whole entry): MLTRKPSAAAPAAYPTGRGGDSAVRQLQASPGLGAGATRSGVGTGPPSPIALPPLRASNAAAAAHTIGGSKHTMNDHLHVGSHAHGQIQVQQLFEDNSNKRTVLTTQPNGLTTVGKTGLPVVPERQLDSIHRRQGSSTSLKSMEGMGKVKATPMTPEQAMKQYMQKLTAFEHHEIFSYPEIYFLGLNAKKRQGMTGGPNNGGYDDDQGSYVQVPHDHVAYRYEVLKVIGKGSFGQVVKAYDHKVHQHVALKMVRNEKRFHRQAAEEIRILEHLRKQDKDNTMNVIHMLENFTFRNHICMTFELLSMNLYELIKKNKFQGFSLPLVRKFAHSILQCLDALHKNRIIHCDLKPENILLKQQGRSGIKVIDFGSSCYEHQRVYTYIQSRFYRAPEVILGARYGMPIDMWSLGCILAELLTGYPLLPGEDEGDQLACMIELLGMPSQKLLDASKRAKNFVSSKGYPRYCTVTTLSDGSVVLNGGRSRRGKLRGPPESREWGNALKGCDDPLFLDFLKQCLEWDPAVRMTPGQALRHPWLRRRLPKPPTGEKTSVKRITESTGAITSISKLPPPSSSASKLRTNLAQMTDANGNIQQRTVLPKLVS
Method in brief: as §1

FGFR3 = FGFR3 (Homo sapiens (Human), UniProt P22607)
Sequence of FGFR3 (P22607 23-806): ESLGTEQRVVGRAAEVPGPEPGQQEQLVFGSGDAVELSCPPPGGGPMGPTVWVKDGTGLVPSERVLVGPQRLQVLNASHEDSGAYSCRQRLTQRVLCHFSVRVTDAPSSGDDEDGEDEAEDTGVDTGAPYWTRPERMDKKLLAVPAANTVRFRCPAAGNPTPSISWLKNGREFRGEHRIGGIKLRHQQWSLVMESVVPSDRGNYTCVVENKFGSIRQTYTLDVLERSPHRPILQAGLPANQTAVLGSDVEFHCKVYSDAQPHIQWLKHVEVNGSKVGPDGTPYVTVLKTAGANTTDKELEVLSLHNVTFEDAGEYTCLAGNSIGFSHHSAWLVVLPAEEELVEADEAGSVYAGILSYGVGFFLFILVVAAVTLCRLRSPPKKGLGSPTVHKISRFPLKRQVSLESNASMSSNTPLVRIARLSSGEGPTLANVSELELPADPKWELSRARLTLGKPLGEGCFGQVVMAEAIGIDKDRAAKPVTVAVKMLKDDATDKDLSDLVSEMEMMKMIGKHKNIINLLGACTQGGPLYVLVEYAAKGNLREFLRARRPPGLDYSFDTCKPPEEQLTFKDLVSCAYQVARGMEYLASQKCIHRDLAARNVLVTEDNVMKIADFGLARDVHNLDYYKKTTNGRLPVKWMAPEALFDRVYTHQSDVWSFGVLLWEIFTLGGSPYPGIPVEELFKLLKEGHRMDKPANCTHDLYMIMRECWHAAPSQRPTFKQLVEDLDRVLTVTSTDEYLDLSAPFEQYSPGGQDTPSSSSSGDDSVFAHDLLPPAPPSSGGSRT
Method in brief: as §1

Haspin = Haspin (Homo sapiens (Human), UniProt Q8TF76)
Sequence of Haspin (Q8TF76 whole entry): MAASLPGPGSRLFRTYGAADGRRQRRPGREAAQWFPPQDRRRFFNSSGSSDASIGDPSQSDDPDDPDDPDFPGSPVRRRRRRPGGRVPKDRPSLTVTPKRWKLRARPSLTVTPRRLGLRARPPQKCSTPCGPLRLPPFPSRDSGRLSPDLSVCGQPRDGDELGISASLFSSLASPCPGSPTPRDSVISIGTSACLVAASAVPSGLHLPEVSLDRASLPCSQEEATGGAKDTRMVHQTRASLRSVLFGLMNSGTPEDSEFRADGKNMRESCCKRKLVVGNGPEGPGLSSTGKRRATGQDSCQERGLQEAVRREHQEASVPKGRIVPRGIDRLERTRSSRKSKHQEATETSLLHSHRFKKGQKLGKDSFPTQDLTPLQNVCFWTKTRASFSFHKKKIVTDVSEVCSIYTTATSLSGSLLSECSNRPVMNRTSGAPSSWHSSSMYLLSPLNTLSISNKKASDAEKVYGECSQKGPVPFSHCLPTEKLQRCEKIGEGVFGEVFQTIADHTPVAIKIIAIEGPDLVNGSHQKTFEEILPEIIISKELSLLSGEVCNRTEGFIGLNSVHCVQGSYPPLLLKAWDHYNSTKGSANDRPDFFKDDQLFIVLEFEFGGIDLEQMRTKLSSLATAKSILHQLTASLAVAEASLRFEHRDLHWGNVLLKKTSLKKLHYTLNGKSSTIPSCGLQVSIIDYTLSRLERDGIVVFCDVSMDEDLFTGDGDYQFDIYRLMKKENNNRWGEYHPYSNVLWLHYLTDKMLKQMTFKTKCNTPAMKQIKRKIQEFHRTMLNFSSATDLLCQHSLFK
Method in brief: as §1

JAK2 = JAK2 (Homo sapiens (Human), UniProt O60674)
Method in brief: as §1

SGK3 = SGK3 (Homo sapiens (Human), UniProt Q96BR1)
Method in brief: as §1

EphA2 = EphA2 (Homo sapiens (Human), UniProt P29317)
Method in brief: as §1

PhKgamma2 = PhKgamma2 (Homo sapiens (Human), UniProt P15735)
Method in brief: as §1

Rse = Rse (Homo sapiens (Human), UniProt Q06418)
Method in brief: as §1

MEK1 = MEK1 (Homo sapiens (Human), UniProt Q02750)
Method in brief: as §1

CHK1 = CHK1 (Homo sapiens (Human), UniProt O14757)
Method in brief: as §1

TSSK2 = TSSK2 (Homo sapiens (Human), UniProt Q96PF2)
Method in brief: as §1

MYLK = MYLK (Homo sapiens (Human), UniProt Q15746)
Method in brief: as §1

Fms = Fms (Homo sapiens (Human), UniProt P07333)
Method in brief: as §1

Bmx = Bmx (Homo sapiens (Human), UniProt P51813)
Sequence of Bmx (P51813 whole entry): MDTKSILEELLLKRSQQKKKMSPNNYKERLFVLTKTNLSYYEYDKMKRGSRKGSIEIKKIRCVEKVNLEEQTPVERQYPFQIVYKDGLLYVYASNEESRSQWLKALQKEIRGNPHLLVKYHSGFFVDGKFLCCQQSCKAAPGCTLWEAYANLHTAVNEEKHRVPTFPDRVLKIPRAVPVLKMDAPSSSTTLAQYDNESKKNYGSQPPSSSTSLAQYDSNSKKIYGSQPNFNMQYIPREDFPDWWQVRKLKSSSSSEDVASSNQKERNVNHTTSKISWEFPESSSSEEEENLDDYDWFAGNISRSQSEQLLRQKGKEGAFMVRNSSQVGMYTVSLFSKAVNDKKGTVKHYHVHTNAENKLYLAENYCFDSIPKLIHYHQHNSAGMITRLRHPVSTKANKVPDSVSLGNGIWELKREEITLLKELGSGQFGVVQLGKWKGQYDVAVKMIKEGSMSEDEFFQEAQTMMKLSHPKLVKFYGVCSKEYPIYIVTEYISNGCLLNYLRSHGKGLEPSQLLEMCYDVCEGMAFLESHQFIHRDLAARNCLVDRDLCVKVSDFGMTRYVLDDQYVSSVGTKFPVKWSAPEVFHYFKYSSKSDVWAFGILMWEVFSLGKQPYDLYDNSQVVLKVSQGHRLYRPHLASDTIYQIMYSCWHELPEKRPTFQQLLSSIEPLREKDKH
Method in brief: as §1

MST1 = MST1 (Homo sapiens (Human), UniProt Q13043)
Method in brief: as §1

DDR2 = DDR2 (Homo sapiens (Human), UniProt Q16832)
Method in brief: as §1

PDGFRbeta = PDGFRbeta (Homo sapiens (Human), UniProt P09619)
Method in brief: as §1

LOK = LOK (Homo sapiens (Human), UniProt O94804)
Method in brief: as §1

HIPK3 = HIPK3 (Homo sapiens (Human), UniProt Q9H422)
Sequence of HIPK3 (Q9H422 whole entry): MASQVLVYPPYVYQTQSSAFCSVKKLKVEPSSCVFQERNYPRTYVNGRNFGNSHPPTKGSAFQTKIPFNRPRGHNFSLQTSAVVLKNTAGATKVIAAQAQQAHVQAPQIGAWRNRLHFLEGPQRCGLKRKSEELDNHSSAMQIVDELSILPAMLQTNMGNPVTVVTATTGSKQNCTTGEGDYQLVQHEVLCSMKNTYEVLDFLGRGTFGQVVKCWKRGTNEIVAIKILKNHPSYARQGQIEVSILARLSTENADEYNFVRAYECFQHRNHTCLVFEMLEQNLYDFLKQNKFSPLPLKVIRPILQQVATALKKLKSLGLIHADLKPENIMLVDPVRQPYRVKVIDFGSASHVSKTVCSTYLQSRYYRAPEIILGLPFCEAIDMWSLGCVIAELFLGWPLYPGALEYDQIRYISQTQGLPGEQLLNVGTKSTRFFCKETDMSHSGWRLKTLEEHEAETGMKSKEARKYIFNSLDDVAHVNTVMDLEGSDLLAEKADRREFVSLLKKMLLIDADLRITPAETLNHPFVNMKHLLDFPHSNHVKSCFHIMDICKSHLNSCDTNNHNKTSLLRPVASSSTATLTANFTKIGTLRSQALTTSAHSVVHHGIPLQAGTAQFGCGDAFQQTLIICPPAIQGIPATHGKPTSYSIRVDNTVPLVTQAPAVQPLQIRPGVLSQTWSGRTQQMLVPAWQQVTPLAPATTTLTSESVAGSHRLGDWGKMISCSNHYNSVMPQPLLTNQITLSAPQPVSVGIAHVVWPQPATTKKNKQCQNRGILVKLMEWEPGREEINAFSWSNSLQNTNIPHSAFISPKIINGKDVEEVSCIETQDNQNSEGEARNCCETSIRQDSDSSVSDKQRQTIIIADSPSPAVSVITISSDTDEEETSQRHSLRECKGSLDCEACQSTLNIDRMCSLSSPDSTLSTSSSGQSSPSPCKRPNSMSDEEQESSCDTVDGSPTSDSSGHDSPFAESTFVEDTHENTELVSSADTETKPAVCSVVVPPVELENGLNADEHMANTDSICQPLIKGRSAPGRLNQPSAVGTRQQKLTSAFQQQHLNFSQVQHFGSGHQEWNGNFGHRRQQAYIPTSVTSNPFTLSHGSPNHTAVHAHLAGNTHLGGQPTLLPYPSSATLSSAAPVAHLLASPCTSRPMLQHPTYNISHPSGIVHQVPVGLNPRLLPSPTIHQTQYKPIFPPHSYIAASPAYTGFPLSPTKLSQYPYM
Method in brief: as §1

SIK = SIK (Homo sapiens (Human), UniProt P57059)
Method in brief: as §1

Axl = Axl (Homo sapiens (Human), UniProt P30530)
Sequence of Axl (P30530 26-894): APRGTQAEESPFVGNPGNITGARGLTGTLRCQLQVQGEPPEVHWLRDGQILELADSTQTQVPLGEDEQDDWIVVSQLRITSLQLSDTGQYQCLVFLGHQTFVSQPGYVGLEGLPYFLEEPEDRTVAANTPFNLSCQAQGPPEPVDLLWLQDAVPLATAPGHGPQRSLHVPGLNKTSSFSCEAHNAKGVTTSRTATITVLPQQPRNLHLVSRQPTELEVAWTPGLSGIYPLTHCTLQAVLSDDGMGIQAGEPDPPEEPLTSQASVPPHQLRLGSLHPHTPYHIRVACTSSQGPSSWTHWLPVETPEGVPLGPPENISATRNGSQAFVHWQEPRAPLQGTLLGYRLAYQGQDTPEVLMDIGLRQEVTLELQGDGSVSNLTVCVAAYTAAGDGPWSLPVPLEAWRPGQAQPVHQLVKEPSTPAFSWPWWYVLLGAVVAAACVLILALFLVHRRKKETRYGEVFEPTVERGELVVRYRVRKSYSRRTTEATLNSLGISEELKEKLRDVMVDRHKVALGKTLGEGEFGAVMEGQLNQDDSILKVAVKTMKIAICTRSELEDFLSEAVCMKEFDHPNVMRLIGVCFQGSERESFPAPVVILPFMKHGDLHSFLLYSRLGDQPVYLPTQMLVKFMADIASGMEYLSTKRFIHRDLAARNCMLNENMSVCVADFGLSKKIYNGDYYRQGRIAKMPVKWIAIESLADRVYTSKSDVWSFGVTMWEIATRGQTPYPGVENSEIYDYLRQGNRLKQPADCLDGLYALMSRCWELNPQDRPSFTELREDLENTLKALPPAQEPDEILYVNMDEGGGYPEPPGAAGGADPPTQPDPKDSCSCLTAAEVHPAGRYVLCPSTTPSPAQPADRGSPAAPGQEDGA
Method in brief: as §1

PKCtheta = PKCtheta (Homo sapiens (Human), UniProt Q04759)
Method in brief: as §1

AKT3 = AKT3 (Homo sapiens (Human), UniProt Q9Y243)
Method in brief: as §1

MAPKAP-K5 = MAPKAP-K5 (Homo sapiens (Human), UniProt Q8IW41)
Method in brief: as §1

Pim-1 = Pim-1 (Homo sapiens (Human), UniProt P11309)
Method in brief: as §1

DAPK3 = DAPK3 (Homo sapiens (Human), UniProt O43293)
Method in brief: as §1

PKCalpha = PKCalpha (Homo sapiens (Human), UniProt P17252)
Method in brief: as §1

TAO1 = TAO1 (Homo sapiens (Human), UniProt Q7L7X3)
Method in brief: as §1

Ron = Ron (Homo sapiens (Human), UniProt Q04912)
Method in brief: as §1

CAMK2g = CAMK2g (Homo sapiens (Human), UniProt Q13555)
Method in brief: as §1

CDK5/p35 = CDK5/p35 (Homo sapiens (Human), UniProt Q00535)
Method in brief: as §1

Rsk3 = Rsk3 (Homo sapiens (Human), UniProt Q15349)
Method in brief: as §1

JNK3 = JNK3 (Homo sapiens (Human), UniProt P53779)
Method in brief: as §1

TrkB = TrkB (Homo sapiens (Human), UniProt Q16620)
Method in brief: as §1

| Avg POC (MRCKalpha) [POC] | Avg POC (IRAK4) [POC] | Avg POC (PKCbetaI) [POC] | Avg POC (RIPK2) [POC] | Avg POC (SGK1) [POC] | Avg POC (CAMK2b) [POC] | Avg POC (DYRK2) [POC] | Avg POC (FGFR3) [POC] | Avg POC (Haspin) [POC] | Avg POC (JAK2) [POC] | Avg POC (SGK3) [POC] | Avg POC (EphA2) [POC] | Avg POC (PhKgamma2) [POC] | Avg POC (Rse) [POC] | Avg POC (MEK1) [POC] | Avg POC (CHK1) [POC] | Avg POC (TSSK2) [POC] | Avg POC (MYLK) [POC] | Avg POC (Fms) [POC] | Avg POC (Bmx) [POC] | Structure (SMILES) | further results |
| --- | --- | --- | --- | --- | --- | --- | --- | --- | --- | --- | --- | --- | --- | --- | --- | --- | --- | --- | --- | --- | --- |
| 113 | 132 | 95 | 105.5 | 98.5 | 90.5 | 90.5 | 111.5 | 71.5 | 112.5 | 106 | 110.5 | 90 | 96 | 100.5 | 114.5 | 107 | 86.5 | 101.5 | 115.5 | COCCN1C[C@@H](NC(=O)Nc2c(C)c(-c3ccnc(C)c3)nn2-c2ccccc2)[C@H](c2ccc(F)c(F)c2)C1 [Example 2, 1-((3S,4R)-4-(3,4-difluorophenyl)-1-(2-methoxyethyl)pyrrolidin-3-yl)-3-(4-methyl-3-(2-methylpyridin-4-yl)-1-phenyl-1H-pyrazol-5-yl)urea] | Avg POC (MST1): 94 POC; Avg POC (DDR2): 100.5 POC; Avg POC (PDGFRbeta): 108.5 POC; Avg POC (LOK): 109 POC; Avg POC (HIPK3): 99.5 POC; Avg POC (SIK): 106.5 POC; Avg POC (Axl): 117 POC; Avg POC (PKCtheta): 98.5 POC; Avg POC (AKT3): 110 POC; Avg POC (MAPKAP-K5): 100 POC; Avg POC (Pim-1): 99.5 POC; Avg POC (DAPK3): 107 POC; Avg POC (PKCalpha): 96 POC; Avg POC (TAO1): 102.5 POC; Avg POC (Ron): 122.5 POC; Avg POC (CAMK2g): 89.5 POC; Avg POC (CDK5/p35): 113 POC; Avg POC (Rsk3): 98 POC; Avg POC (JNK3): 111.5 POC; Avg POC (TrkB): 1.5 POC |
| 124.5 | 110.5 | 101 | 93.5 | 99 | 93 | 85 | 133.5 | 96 | 109 | 107 | 96 | 88 | 96.5 | 91 | 104.5 | 107.5 | 101.5 | 76 | 105.5 | COCCN1C[C@@H](NC(=O)Nc2c(C)c(-c3cnc(C)nc3)nn2-c2ccccc2)[C@H](c2cc(F)cc(F)c2)C1 [Example 14, 1-((3S,4R)-4-(3,5-difluorophenyl)-1-(2-methoxyethyl)pyrrolidin-3-yl)-3-(4-methyl-3-(2-methylpyrimidin-5-yl)-1-phenyl-1H-pyrazol-5-yl)urea] | Avg POC (MST1): 97.5 POC; Avg POC (DDR2): 96 POC; Avg POC (PDGFRbeta): 120 POC; Avg POC (LOK): 105 POC; Avg POC (HIPK3): 89 POC; Avg POC (SIK): 96 POC; Avg POC (Axl): 103 POC; Avg POC (PKCtheta): 98 POC; Avg POC (AKT3): 104 POC; Avg POC (MAPKAP-K5): 123.5 POC; Avg POC (Pim-1): 103.5 POC; Avg POC (DAPK3): 105.5 POC; Avg POC (PKCalpha): 93 POC; Avg POC (TAO1): 96.5 POC; Avg POC (Ron): 104 POC; Avg POC (CAMK2g): 99 POC; Avg POC (CDK5/p35): 115.5 POC; Avg POC (Rsk3): 96 POC; Avg POC (JNK3): 121 POC; Avg POC (TrkB): 4.5 POC |
